Entries after “also recorded” stand apart in the source; their conditions may differ.
What was measured:
[1] = target: T1, GluN1/GluN2B receptor (Homo sapiens, UniProt Q05586+Q13224); assay: whole-cell patch-clamp on HEK293 cells expressing GluN1/GluN2B NMDAR; type: cell-based; details: HEK293, 10 µM, −60 mV, ± SEM (n = 5–6), 100% = full inhibition; read-out: Relative inhibition (RI) of GluN1/GluN2B NMDAR
T1 construct: expressed in transfected cells; host or cells: HEK293
Description: We tested the derivatives by the whole-cell patch-clamp method at a concentration of 10 μM under steady-state conditions in the presence of the saturating concentrations of NMDAR (co-)agonists (L-glutamate and glycine). […] Whole-cell patch-clamp recordings were performed using an Axopatch 200B amplifier (Molecular Devices, LLC., San Jose, CA, USA) at a holding membrane potential of −60 mV. HEK293 cells were co-transfected with DNA vectors encoding human versions of the GluN1-4a (GluN1) and GluN2B subunits and green fluorescent protein (GFP) in a 1:1:1 ratio using 0.9 μL PolyMag reagent (OZ Biosciences SAS, Marseille, France) in 50 μL Opti-MEM I [56, 57]. After 15 min on a magnetic plate, HEK293 cells were trypsinized and resuspended in Opti-MEM I medium containing 1% FBS, 2 mM MgCl2 and 3 mM kynurenic acid (to reduce cell death caused by activation of NMDARs). Electrophysiological measurements were performed 24–48 h after completion of transfection at room temperature. The extracellular recording solution (ECS) contained (in mM): 160 NaCl, 2.5 KCl, 10 HEPES, 10 D-glucose, 0.2 EDTA, and 0.7 CaCl2 (pH 7.3 with NaOH). […] A microprocessor-controlled rapid perfusion system with a time constant for solution exchange around the recorded cell of ~20 ms was used. Currents were low-pass filtered at 2 kHz using an eight-pole Bessel filter, digitized at 5 kHz, and recorded using the pCLAMP 10 program (Molecular Devices, LLC., San Jose, CA, USA). The co-agonist glycine (100 µM) was applied throughout the recording, and the agonist L-glutamate (1 mM) was used to elicit responses of GluN1/GluN2B receptors.

[2] = target: T2, hMAO-A (Homo sapiens, UniProt P21397); assay: in vitro inhibition of hMAO-A, kynuramine fluorescence assay; type: biochemical
T2 construct: purchased Merck (Prague, Czech Republic)
T2 sequence (P21397 1-527): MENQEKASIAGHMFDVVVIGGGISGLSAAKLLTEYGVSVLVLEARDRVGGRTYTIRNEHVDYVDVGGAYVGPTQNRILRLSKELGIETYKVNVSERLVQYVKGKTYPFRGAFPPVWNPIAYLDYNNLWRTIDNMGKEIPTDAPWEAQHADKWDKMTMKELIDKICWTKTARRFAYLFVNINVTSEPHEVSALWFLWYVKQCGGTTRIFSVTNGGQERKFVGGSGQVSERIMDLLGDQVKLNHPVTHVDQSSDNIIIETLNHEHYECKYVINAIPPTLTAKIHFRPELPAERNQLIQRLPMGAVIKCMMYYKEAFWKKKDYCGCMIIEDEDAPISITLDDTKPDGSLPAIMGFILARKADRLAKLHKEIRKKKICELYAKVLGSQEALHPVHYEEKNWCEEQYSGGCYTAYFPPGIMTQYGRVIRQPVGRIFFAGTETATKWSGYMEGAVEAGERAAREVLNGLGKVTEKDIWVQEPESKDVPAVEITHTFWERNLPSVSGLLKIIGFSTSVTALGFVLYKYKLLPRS
Description: The hMAO-A and hMAO-B enzymes were purchased from Merck (Prague, Czech Republic). […] The mixture was pre-incubated at 37 °C for 15 min and subsequently substrate kynuramine was added to the final concentration of 100 µM. The final volume of reaction mixture was 0.1 mL. The whole reaction mixture was incubated at 37 °C for 30 min. The reaction was stopped by the addition of 20 µL 4M NaOH.

[3] = target: T3, human AChE (hAChE) (Homo sapiens, UniProt P22303); assay: hAChE inhibition, modified Ellman's method; type: biochemical; details: read-out: % of AChE inhibition
T3 construct: made in house
Description: N-Methylpropargylamine-quinazolines were tested for their inhibitory potency against human AChE (hAChE) and human BChE (hBChE) enzymes using the modified spectrophotometric method of Ellman et al..
The human recombinant BChE and AChE were prepared at the Department of Toxicology and Military Pharmacy (Faculty of Military Health Sciences, Hradec Kralove, Czech Republic). 5,5′-dithiobis(2-nitrobenzoic acid) (Ellman’s reagent, DTNB), phosphate buffer (PB, pH 7.4), acetylthiocholine (ATC) and butyrylthiocholine (BTC), were purchased from Sigma-Aldrich, Prague, Czech Republic. For measuring purposes, polystyrene Nunc 96-well microplates with a flat-bottom shape (ThermoFisher Scientific, Waltham, MA, USA) were utilized. All the assays were carried out in 0.1 M KH2PO4/K2HPO4 buffer, pH 7.4. Enzyme solutions were prepared at 2.0 units/mL in 2 mL aliquots. The assay medium consisted of a 0.1 M phosphate buffer (pH 7.4), 0.01 M DTNB, the enzyme, and 0.01 M substrate (ATC/BTC iodide solution). Concentration 1 µM was tested and the % of inhibition was calculated. Tested compounds were pre-incubated for 5 min. The reaction was started by immediate addition of 20 μL of the substrate. […] Each concentration was assayed in triplicate. Software GraphPad Prism 5 (San Diego, CA, USA) was used for the statistical data evaluation.

[4] = in vitro; details: human, undifferentiated SH-SY5Y cells
[5] = tested on: differentiated SH-SY5Y cells; assay: MTT viability of differentiated SH-SY5Y; type: cell-based, human; details: concentration equal to IC50 from undifferentiated model, 24 h
Description: Then, the differentiated SH-SY5Y cells were treated with concentrations corresponding to the IC50 values obtained from the cytotoxicity measurement using undifferentiated SH-SY5Y cells. Cells were exposed to a tested compound for 24 h. Then, the medium was replaced by a medium containing 10 μM of MTT and cells were allowed to produce formazan for another, approximately 3 h under surveillance. Thereafter, the medium was aspirated and purple crystals of MTT formazan were dissolved in 100 μL DMSO under shaking. Cell viability was assessed spectrophotometrically by the amount of formazan produced. Absorbance was measured at 570 nm with 650 nm reference wavelength on Spark (Tecan Group Ltd., Männedorf, Switzerland). The IC50 value was then calculated from the control-subtracted triplicates using non-linear regression (four parameters) of GraphPad Prism 9 software. Final IC50 and SEM values were obtained as a mean of three.

[6] = tested on: SH-SY5Y cells; assay: glutathione levels, monochlorobimane assay; type: cell-based, human; details: 10 µM, 24 h
Description: Next, we tested the effects of the compounds on intracellular dehydrogenase activity and glutathione levels. […] To evaluate the effects of the compounds on cells, we measured total intracellular dehydrogenase activity as a marker of cellular viability and glutathione levels for evaluation of oxidative stress (Table 6).
The glutathione (GSH) levels were measured using an optimized monochlorobimane assay. The working solutions of monochlorobimane (MCB, Merck, Rahway, NJ, USA) were prepared fresh at the time of analysis by dilution in Dulbecco’s phosphate buffer (PBS; pH 7; 1 µM, Merck, USA) and tempered at 37 °C for 30 min. After the treatment of cells with I-6e (100 µM), I-6h (100 µM), II-6e (100 µM), II-6h (10–100 µM) and III-6a (10–100 µM), 20 μL of the MCB solution was added to the cells in 96-well microplates and the measurement started immediately (final concentration of MCB in a well was 40 μmol/L) The fluorescence intensity (Ex/Em = 394/490 nm) was measured kinetically for 20 min using SPARK microplate reader (Tecan, Austria). The fluorescence was expressed as the slope of a fluorescence change over time. The GSH levels were expressed as the percentage relative to the GSH levels in control cells (control = 100%).

T1 sequence (Q13224 27-1484, other chains not shown): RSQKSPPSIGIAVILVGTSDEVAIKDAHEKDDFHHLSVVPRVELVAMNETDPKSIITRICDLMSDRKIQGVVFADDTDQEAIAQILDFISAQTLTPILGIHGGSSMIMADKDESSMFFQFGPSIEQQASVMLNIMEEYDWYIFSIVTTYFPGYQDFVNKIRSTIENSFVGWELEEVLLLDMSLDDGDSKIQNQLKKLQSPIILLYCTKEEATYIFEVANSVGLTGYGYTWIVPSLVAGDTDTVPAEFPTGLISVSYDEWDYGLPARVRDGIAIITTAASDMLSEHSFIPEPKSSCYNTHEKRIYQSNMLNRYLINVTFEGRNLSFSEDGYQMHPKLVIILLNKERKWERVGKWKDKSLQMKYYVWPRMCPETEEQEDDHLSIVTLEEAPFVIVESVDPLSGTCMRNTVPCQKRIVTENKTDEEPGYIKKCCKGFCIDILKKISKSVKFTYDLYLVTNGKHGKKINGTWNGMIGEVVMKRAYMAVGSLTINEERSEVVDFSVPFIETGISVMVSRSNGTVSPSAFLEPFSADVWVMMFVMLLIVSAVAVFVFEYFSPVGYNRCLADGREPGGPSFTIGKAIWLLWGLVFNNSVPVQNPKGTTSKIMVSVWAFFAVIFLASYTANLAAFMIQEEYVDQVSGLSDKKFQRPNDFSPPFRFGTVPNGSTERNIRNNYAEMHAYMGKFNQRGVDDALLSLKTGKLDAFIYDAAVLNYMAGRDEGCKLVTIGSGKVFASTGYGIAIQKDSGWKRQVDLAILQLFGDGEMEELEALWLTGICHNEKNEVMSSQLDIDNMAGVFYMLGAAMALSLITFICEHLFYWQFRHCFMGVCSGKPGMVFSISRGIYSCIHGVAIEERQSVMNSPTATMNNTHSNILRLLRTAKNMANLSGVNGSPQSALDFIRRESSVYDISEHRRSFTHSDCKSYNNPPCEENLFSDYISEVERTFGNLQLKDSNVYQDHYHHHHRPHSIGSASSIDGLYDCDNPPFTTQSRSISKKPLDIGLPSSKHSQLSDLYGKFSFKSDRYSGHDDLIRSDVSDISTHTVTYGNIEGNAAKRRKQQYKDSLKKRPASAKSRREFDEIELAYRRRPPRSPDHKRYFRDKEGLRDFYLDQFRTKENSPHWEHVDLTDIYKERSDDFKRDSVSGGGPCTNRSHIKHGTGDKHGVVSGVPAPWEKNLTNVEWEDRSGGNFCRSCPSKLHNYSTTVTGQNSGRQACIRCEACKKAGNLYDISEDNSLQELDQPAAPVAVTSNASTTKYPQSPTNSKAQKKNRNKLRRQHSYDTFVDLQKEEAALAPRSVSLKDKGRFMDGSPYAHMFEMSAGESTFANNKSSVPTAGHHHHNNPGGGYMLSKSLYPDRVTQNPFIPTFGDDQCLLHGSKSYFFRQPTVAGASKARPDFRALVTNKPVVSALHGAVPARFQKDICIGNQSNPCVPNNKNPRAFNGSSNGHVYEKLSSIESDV
T3 sequence (P22303 32-614): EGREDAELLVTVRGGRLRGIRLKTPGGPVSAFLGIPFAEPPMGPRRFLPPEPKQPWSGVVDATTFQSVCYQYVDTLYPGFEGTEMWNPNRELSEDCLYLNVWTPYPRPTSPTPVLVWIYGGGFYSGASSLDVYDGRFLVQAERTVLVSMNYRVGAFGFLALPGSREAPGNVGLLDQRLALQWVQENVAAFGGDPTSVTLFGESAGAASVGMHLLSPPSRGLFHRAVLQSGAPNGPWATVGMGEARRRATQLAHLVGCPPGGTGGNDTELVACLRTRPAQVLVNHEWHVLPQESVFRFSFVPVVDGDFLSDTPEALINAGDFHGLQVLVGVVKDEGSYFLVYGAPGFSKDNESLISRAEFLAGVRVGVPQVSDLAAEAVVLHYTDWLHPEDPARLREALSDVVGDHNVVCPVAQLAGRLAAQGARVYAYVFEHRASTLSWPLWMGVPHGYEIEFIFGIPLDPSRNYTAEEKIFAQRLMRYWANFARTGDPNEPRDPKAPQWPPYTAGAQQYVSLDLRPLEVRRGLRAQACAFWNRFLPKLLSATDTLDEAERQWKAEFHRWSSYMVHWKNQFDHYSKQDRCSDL

| Structure (SMILES) | inhibition at 10 µM [1] | IC50 [2] | inhibition at 1 µM [3] | IC50 at 24 h [4] | effect on viability of differentiated SH-SY5Y (in words) [5] | change in glutathione levels (in words) [6] |
| --- | --- | --- | --- | --- | --- | --- |
| C#CCN(C)c1nc(NCCCC)c2ccccc2n1 [I-6e, N4-butyl-N2-methyl-N2-(prop-2-yn-1-yl)quinazoline-2,4-diamine] | 30.1 ± 3.13% | 2.6 ± 0.23 µM | 3% | 67.95 ± 0.22 µM | no difference from the undifferentiated model |  |
| C#CCN(C)c1nc(NC2CCCCC2)c2ccccc2n1 [I-6h, N4-cyclohexyl-N2-methyl-N2-(prop-2-yn-1-yl)quinazoline-2,4-diamine] | 49.3 ± 1.16% | 0.9 ± 0.17 µM | 4% | 53.2 ± 3.03 µM | no difference from the undifferentiated model |  |
| C#CCN(C)c1nc(NC2CCCCC2)c2ccc(Cl)cc2n1 [II-6h, 7-chloro-N4-cyclohexyl-N2-methyl-N2-(prop-2-yn-1-yl)quinazoline-2,4-diamine] | 63.5 ± 3.46% |  | 3% | 35 ± 1.53 µM | did not exhibit any cytotoxic effects; also recorded: lost the cytotoxic effect | no significant changes |
| C#CCN(C)c1nc(N)c2cc(OC)ccc2n1 [III-6a, 6-methoxy-N2-methyl-N2-(prop-2-yn-1-yl)quinazoline-2,4-diamine] | 18.1 ± 5.75% | 0.62 ± 0.04 µM | 9% | 38.6 ± 0.82 µM | no difference from the undifferentiated model | no significant changes |
